Data: patent US10947188B2, “Small molecule ferroptosis inducers” (THE TRUSTEES OF COLUMBIA UNIVERSITY IN THE CITY OF NEW YORK, priority 2016, dated 2021)
≈ marks a conversion by molar mass, not a printed value.

Legend:
HT-1080 cells = test: Lethality of commercially available CIL41/70 structural analogs; format: cell-based; details: Homo sapiens, tested once in technical triplicates
In short: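 HT-1080 cells (1,000/well) dosed at seeding with twofold 12-point dilutions of lethal compounds. Viability read by Alamar Blue fluorescence (530/590 nm) after 6 h, normalized to media and vehicle wells. Analogs tested once, in technical triplicate.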

[1] = test system: glutathione (GSH and GSSG) in HT-1080 cells; test: Glutathione-quantification assay; format: cell-based; details: 5 μM FIN56 with 100 μM α-tocopherol; 10 h
Experimental: Seeded 500,000 HT-1080 cells in a 10-cm dish. Cells were grown at 37° C. for 16 h. On the day of the analysis, cells were cotreated with 100 μM α-tocopherol and either vehicle (DMSO) or a ferroptosis inducer (10 μM erastin, 0.5 μM (1S,3R)-RSL3, or 5 μM FIN56) and incubated for 10 h. Cells were then trypsinized, pelleted, washed once with 400 μL of ice-cold PBS containing 1 mM EDTA, and sonicated. After the cell debris had been pelleted and removed, both oxidized and reduced glutathione in 120 μL of sample was quantified in technical triplicates using the QuantiChrome glutathione assay kit (BioAssay Systems). The glutathione quantity was normalized to the protein concentration measured via Bradford assay (Bio-Rad).

143B cells = test: FIN56 lethality in 143B cells with or without mitochondrial DNA; format: cell-based; details: ρ+ or ρ0 cells
Description: CoQ10 is an electron carrier in the mitochondrial respiratory chain and an endogenous antioxidant. However, whether it functions in the regulation of ferroptosis via either of these mechanisms remains to be elucidated. […] Thus, exactly how CoQ10 protects cells from FIN56 remains elusive, but the process may involve reprogramming of lipid metabolism in a way that is not conducive to the execution of ferroptosis, or a specific antioxidant action distinct from that of α-tocopherol.

NCI60 cell line panel = test: Cell-line selectivity in the NCI60 cell line panel; format: cell-based
Description: Previously reported ferroptosis inducers either deplete glutathione (by inhibiting cystine uptake) or are covalent GPX4 inhibitors.

truncated human SQS = target: T1, truncated human SQS (Homo sapiens, UniProt P37268); test: SQS competition assay with purified truncated SQS, FIN56 and active probe; format: binding; details: pre-incubation with 100 μM FIN56 for two hours
T1 construct: truncated human squalene synthase (SQS 31-370) in pET28a expression vector; made in house; host or cells: Escherichia coli BL21-Gold (DE3)
T1 sequence (P37268 31-370): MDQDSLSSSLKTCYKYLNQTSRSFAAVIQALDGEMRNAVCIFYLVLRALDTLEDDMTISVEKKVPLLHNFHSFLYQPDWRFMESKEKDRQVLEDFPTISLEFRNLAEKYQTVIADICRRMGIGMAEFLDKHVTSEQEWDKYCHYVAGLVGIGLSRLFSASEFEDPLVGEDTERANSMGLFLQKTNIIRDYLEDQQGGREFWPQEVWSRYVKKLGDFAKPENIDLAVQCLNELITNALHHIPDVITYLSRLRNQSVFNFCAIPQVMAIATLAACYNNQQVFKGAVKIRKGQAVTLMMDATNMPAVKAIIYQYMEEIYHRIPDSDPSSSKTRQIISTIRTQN
Experimental: Bacterial expression and purification of truncated human SQS for competition assay. The plasmid encoding the truncated human squalene synthase (SQS 31-370) in pET28a expression vector, kindly provided by Chia-I Liu and Andrew H. J. Wang (Academia Sinica, Taiwan), was confirmed by DNA sequencing (Gene Wiz, Inc.) and then used to transform Escherichia coli BL21-Gold (DE3) competent cells (Agilent Technologies). The cells with the construct were grown in LB media supplemented with 100 μg/mL […] at 37° C. until the OD600 reached 1. Protein expression was induced with 0.5 mM isopropyl β-D-thiogalactoside at 17° C. overnight (12-13 h). Cells were pelleted (4,000 g, 20 min, 4° C.) and lysed by sonication in SQS buffer (50 mM Tris, pH 7.4, 250 mM NaCl, 5 mM imidazole, 5 mM MgCl2, 1 mM TCEP). Cell lysate was then centrifuged at 15,000 g for 45 min at 4° C. The supernatant was loaded onto a chromatography column containing Ni Sepharose 6 Fast Flow beads (GE Life Sciences) equilibrated with SQS buffer. After two washes and one nonspecific wash of the beads, the bound SQS was eluted with 250 mM imidazole in the same buffer. The purity of eluted fractions was verified by SDS-PAGE as more than 90% pure. The fractions containing SQS were concentrated, flash-frozen, and stored at −80° C.
SQS competition assay with purified truncated SQS, FIN56, and active probe. […]

`N/C(=N\OC(=O)C12CC3CC(CC(C3)C1)C2)c1ccccc1` [CIL41] was tested, and the EC50 (HT-1080 cells) was 2.8 µg/mL (≈ 9.38 µM).

`O=S(=O)(NC1CCCCC1)c1ccc2c(c1)C(=NO)c1cc(S(=O)(=O)NC3CCCCC3)ccc1-2` [FIN56, N2,N7-dicyclohexyl-9-(hydroxyimino)-9H-fluorene-2,7-disulfonamide] was tested, and the glutathione depletion [1] was “did not deplete glutathione”, the “sensitivity of 143B cells with or without mitochondrial DNA” value (143B cells) was “both sensitive to FIN56-induced ferroptosis” and the “cell-line selectivity pattern in NCI60” value (NCI60 cell line panel) was “more similar to other GPX4 inhibitors than to GSH-depleting compounds”. The “competition of SQS binding to active affinity probe” value (truncated human SQS) was “efficiently suppressed”.
